The numbers were not newly measured in US6923993B2, “Process of isolating extract from the Euphorbia obesa plant and methods for using the same” (priority 2001, dated 2005), which cites them from elsewhere.

Series [1] concerns HL-60 human promyelocytic leukemia cells. The note with it: in vitro.
The subject of a further series is skin of mice. To be noted: topically applied.
For the next series, the system named is myelocytic leukemia. The note with it: intravenous 1 mg; patients refractory to cytosine arabinoside, retinoic acid and other antileukemic drugs.
Series [2] has as its system white blood cell (WBC) count. The note with it: intravenous; patients with low WBC after cytotoxic chemotherapy.
The conditions of series [3]: doses of 0.5 to 1 mg.

As to `CCCCCCCCCCCCCC(=O)O[C@@H]1[C@@H](C)[C@@]2(O)[C@@H](C=C(CO)C[C@]3(O)C(=O)C(C)=C[C@@H]23)[C@H]2C(C)(C)[C@]12OC(C)=O` [TPA, 12-O-tetradecanoyl-13-phorbol acetate], the “differentiation and DNA synthesis of HL-60 cells” value in series [1] was “stimulate differentiation and inhibit DNA synthesis”. Further, the “effect on mouse skin” value in the series with skin of mice is on record as “tumor promoter”. Also, the “activity in myelocytic leukemia patients” value with myelocytic leukemia was “pharmacological activity”. Further, in series [2], the “WBC count and neutrophils in the blood” value is “increase in WBC count and neutrophilia”. Moreover, the toxicity in vivo result in series [3] is reported as “toxic effects”.
